Results: the kinase profiling compilation of Christmann-Franck et al. (2016)
Blank lines part the entries; values can stand above or below the compound they belong to.

Columns and labels:
Assay in all cases: KINOMEscan competition binding
Settings in all cases: compound 10.0 µM
[1] = biological target: MAPKAPK5 (human) (UniProt Q8IW41)
[2] = biological target: CSF1R (human) (UniProt P07333)
[3] = tested on: EGFR (human), P00533 [752-759 del]
[4] = biological target: PIK3C2B (human) (UniProt O00750)
[5] = biological target: PRKD2 (human) (UniProt Q9BZL6)
[6] = biological target: FRK (human) (UniProt P42685)
[7] = biological target: CDK5 (human) (UniProt Q00535)
[8] = tested on: EGFR (human), P00533 [L858R]
[9] = biological target: EPHB1 (human) (UniProt P54762)
[10] = biological target: CDC42BPG (human) (UniProt Q6DT37)
[11] = tested on: RET (human), P07949 [V804M]
[12] = biological target: MAPK4 (human) (UniProt P31152)
[13] = biological target: AKT1 (human) (UniProt P31749)
[14] = biological target: CDK18 (human) (UniProt Q07002)
[15] = biological target: SRC (human) (UniProt P12931)
[16] = biological target: MST1R (human) (UniProt Q04912)
[17] = biological target: MARK2 (human) (UniProt Q7KZI7)
[18] = biological target: ULK1 (human) (UniProt O75385)
[19] = biological target: MAP4K5 (human) (UniProt Q9Y4K4)
[20] = biological target: MERTK (human) (UniProt Q12866)
[21] = biological target: RAF1 (human) (UniProt P04049)
[22] = biological target: CAMK2B (human) (UniProt Q13554)
[23] = biological target: STK32B (human) (UniProt Q9NY57)
[24] = biological target: PRKAA2 (human) (UniProt P54646)
[25] = biological target: GSK3B (human) (UniProt P49841)
[26] = biological target: STK3 (human) (UniProt Q13188)
[27] = biological target: CDK9 (human) (UniProt P50750)
[28] = tested on: EGFR (human), P00533 [L861Q]
[29] = biological target: NUAK2 (human) (UniProt Q9H093)
[30] = biological target: JAK2 JH1 catalytic (human) (UniProt O60674)
[31] = biological target: KDR (human) (UniProt P35968)
[32] = biological target: EIF2AK2 (human) (UniProt P19525)
[33] = tested on: ABL1 (human), P00519 [Y253F]
[34] = biological target: MAP2K1 (human) (UniProt Q02750)
[35] = biological target: MAPK13 (human) (UniProt O15264)
[36] = biological target: TIE1 (human) (UniProt P35590)
[37] = biological target: SIK2 (human) (UniProt Q9H0K1)
[38] = biological target: FGFR3 (human) (UniProt P22607)
[39] = biological target: DDR2 (human) (UniProt Q16832)
[40] = biological target: PKN2 (human) (UniProt Q16513)
[41] = biological target: CAMK2D (human) (UniProt Q13557)
Chain of CAMK2D (human) (Q13557 whole entry, looked up): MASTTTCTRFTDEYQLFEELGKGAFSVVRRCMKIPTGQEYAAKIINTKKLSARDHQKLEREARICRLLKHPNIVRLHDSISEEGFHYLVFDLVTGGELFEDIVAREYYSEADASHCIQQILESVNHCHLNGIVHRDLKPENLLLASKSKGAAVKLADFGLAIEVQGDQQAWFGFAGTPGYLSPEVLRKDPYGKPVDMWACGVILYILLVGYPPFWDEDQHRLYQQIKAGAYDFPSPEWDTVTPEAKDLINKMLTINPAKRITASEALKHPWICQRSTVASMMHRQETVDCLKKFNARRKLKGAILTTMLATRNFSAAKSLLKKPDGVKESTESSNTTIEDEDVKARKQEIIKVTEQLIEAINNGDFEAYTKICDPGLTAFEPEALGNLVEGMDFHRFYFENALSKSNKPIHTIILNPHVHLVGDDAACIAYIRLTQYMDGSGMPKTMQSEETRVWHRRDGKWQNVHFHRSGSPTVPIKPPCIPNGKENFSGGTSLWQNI

Chain of MAPKAPK5 (human) (Q8IW41 whole entry, looked up): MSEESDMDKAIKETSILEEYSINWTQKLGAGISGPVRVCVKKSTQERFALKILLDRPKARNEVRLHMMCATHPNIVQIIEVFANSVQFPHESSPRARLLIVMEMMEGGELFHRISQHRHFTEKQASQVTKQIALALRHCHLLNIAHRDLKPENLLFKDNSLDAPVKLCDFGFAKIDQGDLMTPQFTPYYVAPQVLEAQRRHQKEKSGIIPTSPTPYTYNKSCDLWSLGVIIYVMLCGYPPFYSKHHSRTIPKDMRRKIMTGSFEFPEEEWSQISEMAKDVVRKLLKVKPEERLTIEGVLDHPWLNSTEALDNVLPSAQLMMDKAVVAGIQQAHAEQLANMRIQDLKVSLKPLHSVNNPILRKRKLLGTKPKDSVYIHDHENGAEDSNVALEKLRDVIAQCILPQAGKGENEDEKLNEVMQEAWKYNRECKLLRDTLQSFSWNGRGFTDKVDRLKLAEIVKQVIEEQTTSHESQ
Chain of MAP2K1 (human) (Q02750 whole entry, looked up): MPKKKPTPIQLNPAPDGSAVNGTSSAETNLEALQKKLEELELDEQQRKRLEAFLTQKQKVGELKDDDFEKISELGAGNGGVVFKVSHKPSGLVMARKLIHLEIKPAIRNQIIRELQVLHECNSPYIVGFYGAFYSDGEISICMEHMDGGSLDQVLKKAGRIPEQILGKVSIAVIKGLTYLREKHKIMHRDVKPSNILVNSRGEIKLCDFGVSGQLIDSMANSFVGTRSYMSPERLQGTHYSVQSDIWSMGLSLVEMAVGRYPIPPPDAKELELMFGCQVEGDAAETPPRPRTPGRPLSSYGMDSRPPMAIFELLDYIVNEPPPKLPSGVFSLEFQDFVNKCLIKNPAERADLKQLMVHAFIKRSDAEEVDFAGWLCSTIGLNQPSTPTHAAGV
Chain of CAMK2B (human) (Q13554 whole entry, looked up): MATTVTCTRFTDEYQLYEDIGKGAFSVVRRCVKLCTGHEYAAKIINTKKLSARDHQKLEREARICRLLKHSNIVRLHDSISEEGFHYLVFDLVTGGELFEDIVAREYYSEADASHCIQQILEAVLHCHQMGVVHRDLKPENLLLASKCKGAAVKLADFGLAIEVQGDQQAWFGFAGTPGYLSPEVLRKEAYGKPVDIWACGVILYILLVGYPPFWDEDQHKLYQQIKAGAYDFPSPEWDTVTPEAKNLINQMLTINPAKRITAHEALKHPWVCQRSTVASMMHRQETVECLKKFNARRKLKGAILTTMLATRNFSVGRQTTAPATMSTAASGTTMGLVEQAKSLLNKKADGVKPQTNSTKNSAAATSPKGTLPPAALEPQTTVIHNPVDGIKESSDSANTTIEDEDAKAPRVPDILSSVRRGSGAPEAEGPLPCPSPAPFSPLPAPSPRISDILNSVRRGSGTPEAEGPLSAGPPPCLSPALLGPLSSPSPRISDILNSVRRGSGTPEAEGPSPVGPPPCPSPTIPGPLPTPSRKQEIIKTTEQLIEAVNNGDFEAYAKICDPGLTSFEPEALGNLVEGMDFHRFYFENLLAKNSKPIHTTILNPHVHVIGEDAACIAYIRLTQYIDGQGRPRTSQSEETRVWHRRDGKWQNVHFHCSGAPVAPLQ
Chain of STK3 (human) (Q13188 whole entry, looked up): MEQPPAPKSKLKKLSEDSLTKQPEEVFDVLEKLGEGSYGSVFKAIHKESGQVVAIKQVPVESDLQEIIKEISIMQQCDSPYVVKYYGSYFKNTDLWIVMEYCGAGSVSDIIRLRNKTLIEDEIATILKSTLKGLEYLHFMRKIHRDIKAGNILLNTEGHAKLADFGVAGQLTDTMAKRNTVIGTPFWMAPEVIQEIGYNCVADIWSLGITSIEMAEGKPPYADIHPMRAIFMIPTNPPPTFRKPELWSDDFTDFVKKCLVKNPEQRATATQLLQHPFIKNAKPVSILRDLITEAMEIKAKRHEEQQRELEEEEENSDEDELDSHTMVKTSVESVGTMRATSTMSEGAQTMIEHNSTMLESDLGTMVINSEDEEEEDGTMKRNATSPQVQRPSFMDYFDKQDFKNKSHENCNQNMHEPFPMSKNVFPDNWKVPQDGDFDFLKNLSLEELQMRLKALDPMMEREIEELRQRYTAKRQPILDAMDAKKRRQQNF
Chain of PKN2 (human) (Q16513 whole entry, looked up): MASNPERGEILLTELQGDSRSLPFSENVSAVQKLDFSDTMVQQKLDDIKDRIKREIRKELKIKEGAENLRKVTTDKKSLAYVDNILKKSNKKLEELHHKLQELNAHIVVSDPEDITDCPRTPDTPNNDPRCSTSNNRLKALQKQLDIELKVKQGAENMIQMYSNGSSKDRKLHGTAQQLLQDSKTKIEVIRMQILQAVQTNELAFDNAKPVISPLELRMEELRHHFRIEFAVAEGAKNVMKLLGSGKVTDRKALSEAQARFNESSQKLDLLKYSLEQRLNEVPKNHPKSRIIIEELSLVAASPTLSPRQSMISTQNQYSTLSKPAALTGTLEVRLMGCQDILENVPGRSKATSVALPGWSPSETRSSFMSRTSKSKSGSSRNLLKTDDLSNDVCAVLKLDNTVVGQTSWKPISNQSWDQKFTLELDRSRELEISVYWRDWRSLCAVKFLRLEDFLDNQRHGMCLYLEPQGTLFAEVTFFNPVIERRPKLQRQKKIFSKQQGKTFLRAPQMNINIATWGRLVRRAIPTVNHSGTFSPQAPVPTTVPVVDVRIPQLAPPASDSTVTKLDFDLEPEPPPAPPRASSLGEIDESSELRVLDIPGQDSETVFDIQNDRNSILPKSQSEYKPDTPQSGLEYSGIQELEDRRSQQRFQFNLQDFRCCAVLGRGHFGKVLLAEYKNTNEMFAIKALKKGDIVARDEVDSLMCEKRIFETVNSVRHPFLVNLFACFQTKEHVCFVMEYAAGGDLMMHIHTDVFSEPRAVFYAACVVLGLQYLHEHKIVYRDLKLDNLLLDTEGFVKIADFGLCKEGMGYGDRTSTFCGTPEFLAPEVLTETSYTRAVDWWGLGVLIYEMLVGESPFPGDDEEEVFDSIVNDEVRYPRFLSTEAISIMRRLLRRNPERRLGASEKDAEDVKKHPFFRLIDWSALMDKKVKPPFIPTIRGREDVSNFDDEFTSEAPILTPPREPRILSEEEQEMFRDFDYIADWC
Chain of MAP4K5 (human) (Q9Y4K4 whole entry, looked up): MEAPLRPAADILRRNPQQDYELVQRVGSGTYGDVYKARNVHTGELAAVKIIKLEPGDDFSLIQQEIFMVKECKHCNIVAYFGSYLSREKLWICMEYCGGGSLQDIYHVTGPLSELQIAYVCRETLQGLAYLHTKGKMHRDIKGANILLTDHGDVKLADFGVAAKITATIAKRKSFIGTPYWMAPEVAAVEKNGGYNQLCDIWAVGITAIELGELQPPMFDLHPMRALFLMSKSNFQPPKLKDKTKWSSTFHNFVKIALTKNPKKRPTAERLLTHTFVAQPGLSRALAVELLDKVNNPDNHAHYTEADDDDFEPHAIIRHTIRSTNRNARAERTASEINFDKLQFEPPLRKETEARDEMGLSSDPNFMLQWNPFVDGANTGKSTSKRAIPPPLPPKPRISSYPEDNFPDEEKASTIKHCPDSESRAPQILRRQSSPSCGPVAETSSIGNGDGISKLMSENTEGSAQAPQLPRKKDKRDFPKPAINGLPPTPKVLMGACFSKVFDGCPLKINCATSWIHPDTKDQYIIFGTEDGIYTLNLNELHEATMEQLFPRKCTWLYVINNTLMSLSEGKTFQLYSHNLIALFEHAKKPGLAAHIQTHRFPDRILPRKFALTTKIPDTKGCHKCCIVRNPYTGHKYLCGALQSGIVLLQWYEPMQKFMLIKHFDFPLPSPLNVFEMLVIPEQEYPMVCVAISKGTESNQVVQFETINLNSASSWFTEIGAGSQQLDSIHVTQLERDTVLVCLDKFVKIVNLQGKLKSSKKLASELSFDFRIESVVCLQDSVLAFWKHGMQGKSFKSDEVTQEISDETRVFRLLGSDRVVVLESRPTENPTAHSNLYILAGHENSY
Chain of NUAK2 (human) (Q9H093 whole entry, looked up): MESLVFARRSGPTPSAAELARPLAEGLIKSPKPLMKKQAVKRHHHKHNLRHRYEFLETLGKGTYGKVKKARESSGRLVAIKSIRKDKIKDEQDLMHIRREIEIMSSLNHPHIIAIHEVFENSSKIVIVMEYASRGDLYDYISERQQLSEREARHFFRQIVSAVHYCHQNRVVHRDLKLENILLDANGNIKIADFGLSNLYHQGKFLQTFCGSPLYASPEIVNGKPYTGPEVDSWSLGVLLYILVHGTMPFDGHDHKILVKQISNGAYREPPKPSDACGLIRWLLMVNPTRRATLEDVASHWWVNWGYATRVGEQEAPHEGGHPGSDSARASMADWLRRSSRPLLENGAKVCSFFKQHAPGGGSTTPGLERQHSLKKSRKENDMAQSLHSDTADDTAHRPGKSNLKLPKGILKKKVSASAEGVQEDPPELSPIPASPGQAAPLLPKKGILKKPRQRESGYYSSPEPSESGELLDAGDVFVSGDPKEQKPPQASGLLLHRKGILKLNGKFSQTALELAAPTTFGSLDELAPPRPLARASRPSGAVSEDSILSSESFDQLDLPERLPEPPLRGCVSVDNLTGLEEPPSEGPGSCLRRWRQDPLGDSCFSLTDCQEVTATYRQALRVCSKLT

kinase still bound, per cent of control [1]: 100% | kinase still bound, per cent of control [2]: 27% | kinase still bound, per cent of control [3]: 100% | kinase still bound, per cent of control [4]: 100% | kinase still bound, per cent of control [5]: 100% | kinase still bound, per cent of control [6]: 51% | kinase still bound, per cent of control [7]: 100% | kinase still bound, per cent of control [8]: 43% | kinase still bound, per cent of control [9]: 100% | kinase still bound, per cent of control [10]: 100% | kinase still bound, per cent of control [11]: 100% | kinase still bound, per cent of control [12]: 100% | kinase still bound, per cent of control [13]: 91% | kinase still bound, per cent of control [14]: 100% | kinase still bound, per cent of control [15]: 88% | kinase still bound, per cent of control [16]: 100% | kinase still bound, per cent of control [17]: 100% | kinase still bound, per cent of control [18]: 100% | kinase still bound, per cent of control [19]: 91% | kinase still bound, per cent of control [20]: 100% | kinase still bound, per cent of control [21]: 94% | kinase still bound, per cent of control [22]: 92% | kinase still bound, per cent of control [23]: 100% | kinase still bound, per cent of control [24]: 94% | kinase still bound, per cent of control [25]: 82% | kinase still bound, per cent of control [26]: 98% | kinase still bound, per cent of control [27]: 100% | kinase still bound, per cent of control [28]: 85% | kinase still bound, per cent of control [29]: 100% | kinase still bound, per cent of control [30]: 100% | kinase still bound, per cent of control [31]: 100% | kinase still bound, per cent of control [32]: 93% | kinase still bound, per cent of control [33]: 100% | kinase still bound, per cent of control [34]: 85% | kinase still bound, per cent of control [35]: 100% | kinase still bound, per cent of control [36]: 70% | kinase still bound, per cent of control [37]: 89% | kinase still bound, per cent of control [38]: 100% | kinase still bound, per cent of control [39]: 100% | kinase still bound, per cent of control [40]: 100% | kinase still bound, per cent of control [41]: 99%
SMILES: COc1cc(N2CCN(C)CC2)ccc1Nc1ncc2c(n1)N(C)c1ccccc1N(C)C2=O

kinase still bound, per cent of control [4]: 31%
SMILES: N=C1NC(=O)/C(=C/c2ccc(-c3ccccc3O)o2)S1

kinase still bound, per cent of control [21]: 33% | kinase still bound, per cent of control [25]: 12%
SMILES: N=C1NC(=O)/C(=C/c2ccc(-c3csc4ccccc34)o2)S1

kinase still bound, per cent of control [5]: 32% | kinase still bound, per cent of control [26]: 15% | kinase still bound, per cent of control [40]: 15%
SMILES: CS(=O)(=O)Nc1ccc(-c2cc(/C=C3\SC(=N)NC3=O)c[nH]c2=O)cc1

kinase still bound, per cent of control [1]: 12% | kinase still bound, per cent of control [5]: 8.1% | kinase still bound, per cent of control [11]: 16% | kinase still bound, per cent of control [22]: 17% | kinase still bound, per cent of control [24]: 33% | kinase still bound, per cent of control [26]: 25% | kinase still bound, per cent of control [30]: 29% | kinase still bound, per cent of control [32]: 25% | kinase still bound, per cent of control [34]: 26% | kinase still bound, per cent of control [37]: 27% | kinase still bound, per cent of control [40]: 32% | kinase still bound, per cent of control [41]: 7.6%
SMILES: N=C1NC(=O)/C(=C/c2ccc(-c3cncc4ccccc34)o2)S1

kinase still bound, per cent of control [1]: 100% | kinase still bound, per cent of control [2]: 75% | kinase still bound, per cent of control [3]: 69% | kinase still bound, per cent of control [4]: 100% | kinase still bound, per cent of control [5]: 100% | kinase still bound, per cent of control [6]: 93% | kinase still bound, per cent of control [7]: 87% | kinase still bound, per cent of control [8]: 28% | kinase still bound, per cent of control [9]: 96% | kinase still bound, per cent of control [10]: 100% | kinase still bound, per cent of control [11]: 100% | kinase still bound, per cent of control [12]: 99% | kinase still bound, per cent of control [13]: 100% | kinase still bound, per cent of control [14]: 86% | kinase still bound, per cent of control [15]: 48% | kinase still bound, per cent of control [16]: 100% | kinase still bound, per cent of control [17]: 100% | kinase still bound, per cent of control [18]: 100% | kinase still bound, per cent of control [19]: 98% | kinase still bound, per cent of control [20]: 80% | kinase still bound, per cent of control [21]: 89% | kinase still bound, per cent of control [22]: 98% | kinase still bound, per cent of control [23]: 93% | kinase still bound, per cent of control [24]: 84% | kinase still bound, per cent of control [25]: 53% | kinase still bound, per cent of control [26]: 100% | kinase still bound, per cent of control [27]: 100% | kinase still bound, per cent of control [28]: 61% | kinase still bound, per cent of control [29]: 71% | kinase still bound, per cent of control [30]: 85% | kinase still bound, per cent of control [31]: 74% | kinase still bound, per cent of control [32]: 59% | kinase still bound, per cent of control [33]: 26% | kinase still bound, per cent of control [34]: 71% | kinase still bound, per cent of control [35]: 100% | kinase still bound, per cent of control [36]: 24% | kinase still bound, per cent of control [37]: 82% | kinase still bound, per cent of control [38]: 97% | kinase still bound, per cent of control [39]: 100% | kinase still bound, per cent of control [40]: 100% | kinase still bound, per cent of control [41]: 92%
SMILES: COc1cc(N2CCN(C)CC2)ccc1Nc1ncc2c(n1)Nc1ccccc1NC2=O

kinase still bound, per cent of control [18]: 33%
SMILES: CS(=O)(=O)Nc1ccc(-c2ncc(/C=C3\SC(=N)NC3=O)s2)cc1

kinase still bound, per cent of control [5]: 0.1% | kinase still bound, per cent of control [18]: 33% | kinase still bound, per cent of control [29]: 26%
SMILES: N=C1NC(=O)/C(=C/c2c[nH]c(=O)c(-c3ccc(N4CCNCC4)nc3)c2)S1

kinase still bound, per cent of control [17]: 23% | kinase still bound, per cent of control [21]: 25% | kinase still bound, per cent of control [22]: 22% | kinase still bound, per cent of control [31]: 21% | kinase still bound, per cent of control [32]: 23% | kinase still bound, per cent of control [41]: 32%
SMILES: O=C1NC(=S)S/C1=C\c1ccc(-c2cncc3ccccc23)o1

kinase still bound, per cent of control [19]: 12% | kinase still bound, per cent of control [26]: 17% | kinase still bound, per cent of control [37]: 24%
SMILES: CS(=O)(=O)Nc1ccc(-c2cncc(/C=C3\SC(=N)NC3=O)c2)cc1

kinase still bound, per cent of control [4]: 28% | kinase still bound, per cent of control [7]: 27% | kinase still bound, per cent of control [40]: 31% | kinase still bound, per cent of control [41]: 34%
SMILES: N=C1NC(=O)/C(=C/c2ccc(-c3ccc(C(N)=O)cc3O)o2)S1

kinase still bound, per cent of control [20]: 6.8%
SMILES: CN1C(=O)[C@H]2CCC[C@H]2N(C2CCCC2)c2nc(Nc3ccc(C(N)=O)cc3)ncc21

kinase still bound, per cent of control [7]: 12%
SMILES: N=C1NC(=O)/C(=C/c2ccc(-c3ccc(F)cc3O)o2)S1

kinase still bound, per cent of control [18]: 23% | kinase still bound, per cent of control [29]: 32%
SMILES: CSC1=NC(=O)/C(=C/c2c[nH]c(=O)c(-c3ccc(NS(C)(=O)=O)cc3)c2)S1

kinase still bound, per cent of control [3]: 14% | kinase still bound, per cent of control [8]: 29% | kinase still bound, per cent of control [27]: 25% | kinase still bound, per cent of control [30]: 6.6% | kinase still bound, per cent of control [39]: 33%
SMILES: Nc1cccc(-c2cc(/C=C3\SC(=O)NC3=O)c[nH]c2=O)c1
